Data published in ChEMBL document CHEMBL1142965, “(Aryloxyacetylamino)benzoic acid analogues: A new class of hypoxia-inducible factor-1 inhibitors” (J Med Chem, 2007).
The source made the active and inactive calls. The rule behind the calls is not given here.

Key:
AGS = experiment: cells; details: Homo sapiens
Description: Inhibition of hypoxia induced HIF1 transcriptional activity in human AGS cells by cell-based HRE reporter assay

[1] = molecular target: Hypoxia inducible factors; HIF-1-alpha, HIF-2-alpha (Homo sapiens, UniProt Q16665+Q99814); experiment: Inhibition of hypoxia induced HIF1 transcriptional activity in human Hep3B cells by cell-based HRE reporter assay; type: functional; details: hep 3b2
[2] = molecular target: Hypoxia-inducible factor 1-alpha (Homo sapiens) (UniProt Q16665); experiment: Inhibition of hypoxia-induced HIF1-alpha accumulation in human Hep3B cells; type: functional, cell-based; details: Hep 3B2
[3] = Suppression of hypoxia-induced HIF1-alpha mRNA expression in human Hep3B cells; type: functional, cell-based; details: Hep 3B2
[4] = Suppression of hypoxia-induced VEGF mRNA expression in human Hep3B cells; type: functional, cell-based; details: Hep 3B2
[5] = Suppression of hypoxia-induced EPO mRNA expression in human Hep3B cells; type: functional, cell-based; details: Hep 3B2
[6] = Suppression of hypoxia-induced EPO mRNA expression in human Hep3B cells at 10 uM; type: functional, cell-based; details: Hep 3B2
[7] = Suppression of hypoxia-induced VEGF mRNA expression in human Hep3B cells at 10 uM; type: functional, cell-based; details: Hep 3B2

Sequence of Hypoxia-inducible factor 1-alpha (Homo sapiens) (Q16665 whole entry, looked up): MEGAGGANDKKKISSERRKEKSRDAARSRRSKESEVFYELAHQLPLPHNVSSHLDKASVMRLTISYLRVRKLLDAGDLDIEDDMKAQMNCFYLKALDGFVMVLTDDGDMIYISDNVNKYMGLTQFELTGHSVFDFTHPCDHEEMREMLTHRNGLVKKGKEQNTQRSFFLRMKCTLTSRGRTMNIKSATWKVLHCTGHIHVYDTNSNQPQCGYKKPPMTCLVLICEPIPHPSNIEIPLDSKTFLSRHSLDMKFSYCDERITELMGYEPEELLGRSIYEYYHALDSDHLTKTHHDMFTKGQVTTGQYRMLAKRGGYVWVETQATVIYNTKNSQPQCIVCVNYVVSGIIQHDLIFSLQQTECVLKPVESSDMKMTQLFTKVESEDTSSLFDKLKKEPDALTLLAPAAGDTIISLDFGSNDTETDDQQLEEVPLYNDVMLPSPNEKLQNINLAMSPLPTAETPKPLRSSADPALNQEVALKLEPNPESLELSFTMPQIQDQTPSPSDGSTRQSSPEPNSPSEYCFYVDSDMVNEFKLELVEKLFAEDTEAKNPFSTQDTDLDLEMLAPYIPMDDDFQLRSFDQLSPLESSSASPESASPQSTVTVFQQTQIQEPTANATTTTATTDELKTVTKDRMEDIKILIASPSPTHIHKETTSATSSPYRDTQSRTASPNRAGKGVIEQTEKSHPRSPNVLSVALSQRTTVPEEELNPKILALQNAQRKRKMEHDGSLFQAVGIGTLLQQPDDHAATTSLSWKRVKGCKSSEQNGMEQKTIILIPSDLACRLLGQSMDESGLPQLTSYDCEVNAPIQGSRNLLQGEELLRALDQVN

O=C(COc1ccc(C23CC4CC(CC(C4)C2)C3)cc1)Nc1cccc(C(=O)NCc2ccco2)c1
IC50 (AGS): 2.1 µM | IC50 [1]: 14.08 µM

CN(C)C(=O)c1ccc(O)c(NC(=O)COc2ccc(C34CC5CC(CC(C5)C3)C4)cc2)c1
IC50 (AGS): > 30 µM | IC50 [1]: > 30 µM

O=C(COc1ccc(C23CC4CC(CC(C4)C2)C3)cc1)Nc1cccc(C(=O)O)c1
Activity [2]: Dose-dependent effect | Activity [3]: inactive | IC50 (AGS): 2.5 µM | Activity [4]: Dose-dependent effect | IC50 [1]: 5 µM | Activity [5]: Dose-dependent effect

CC(C)(C)c1ccc(OCC(=O)Nc2cccc(C(N)=O)c2)cc1
IC50 (AGS): > 30 µM | IC50 [1]: > 30 µM

Cc1ccc(OCC(=O)Nc2cccc(C(=O)O)c2)cc1
IC50 (AGS): > 30 µM | IC50 [1]: > 30 µM

O=C(COc1ccc(C23CC4CC(CC(C4)C2)C3)cc1)Nc1cccc(C(=O)Nc2ccc3ccccc3c2)c1
IC50 (AGS): > 30 µM | IC50 [1]: > 30 µM

Cc1ccc(-c2ccc(OCC(=O)Nc3cccc(C(=O)O)c3)cc2)cc1
IC50 (AGS): > 30 µM | IC50 [1]: 23.2 µM

COC(=O)c1cccc(NC(=O)COc2ccc(C34CC5CC(CC(C5)C3)C4)cc2)c1
IC50 (AGS): 7.4 µM | IC50 [1]: 9.9 µM

O=C(COc1ccc(F)cc1)Nc1cccc(C(=O)O)c1
IC50 (AGS): > 30 µM | IC50 [1]: > 30 µM

Cc1ccc(OCC(=O)Nc2cccc(C(N)=O)c2)cc1
IC50 (AGS): > 30 µM | IC50 [1]: > 30 µM

O=C(COc1ccc(C23CC4CC(CC(C4)C2)C3)cc1)Nc1cc(C(=O)O)ccc1O
Activity [2]: Dose-dependent effect | IC50 (AGS): 0.35 µM | IC50 [1]: 0.4 µM

O=C(COc1ccc(C23CC4CC(CC(C4)C2)C3)cc1)Nc1cccc(C(=O)NCCc2ccncc2)c1
IC50 (AGS): 3.1 µM | IC50 [1]: 8.2 µM

NC(=O)c1cccc(NC(=O)COc2ccc([N+](=O)[O-])cc2)c1
IC50 (AGS): > 30 µM | IC50 [1]: > 30 µM

O=C(COc1ccc(I)cc1)Nc1cccc(C(=O)O)c1
IC50 (AGS): 3.5 µM | IC50 [1]: 7.2 µM

NC(=O)c1ccc(O)c(NC(=O)COc2ccc(C34CC5CC(CC(C5)C3)C4)cc2)c1
IC50 (AGS): 1.5 µM | IC50 [1]: > 30 µM

O=C(COc1ccc(-c2cccs2)cc1)Nc1cccc(C(=O)O)c1
IC50 (AGS): > 30 µM | IC50 [1]: > 30 µM

OCc1ccc(-c2nn(Cc3ccccc3)c3ccccc23)o1
IC50 (AGS): 2 µM

O=C(COc1ccc(C23CC4CC(CC(C4)C2)C3)cc1)Nc1ccc(C(=O)O)cc1
IC50 [1]: > 30 µM

COC(=O)c1ccc(O)c(NC(=O)COc2ccc(C34CC5CC(CC(C5)C3)C4)cc2)c1
Activity [2]: Dose-dependent effect | Activity [6]: Active | Activity [3]: inactive | Activity [7]: Active | IC50 (AGS): 0.7 µM | Activity [4]: Dose-dependent effect | IC50 [1]: 2.6 µM | Activity [5]: Dose-dependent effect

O=C(COc1ccccc1)Nc1cccc(C(=O)O)c1
IC50 (AGS): > 30 µM | IC50 [1]: > 30 µM

O=C(COc1ccc(Cl)cc1)Nc1cccc(C(=O)O)c1
IC50 (AGS): 10 µM | IC50 [1]: > 30 µM

CN(C)CCNC(=O)c1ccc(O)c(NC(=O)COc2ccc(C34CC5CC(CC(C5)C3)C4)cc2)c1
IC50 (AGS): 3 µM | IC50 [1]: > 30 µM

COc1cccc(-c2ccc(OCC(=O)Nc3cccc(C(=O)O)c3)cc2)c1
IC50 (AGS): 35 µM | IC50 [1]: > 30 µM

O=C(COc1ccc(C23CC4CC(CC(C4)C2)C3)cc1)Nc1cccc(C(=O)Nc2ccc(Cl)cc2)c1
IC50 (AGS): 9.5 µM | IC50 [1]: > 30 µM

O=C(COc1ccc(Br)cc1)Nc1cccc(C(=O)O)c1
IC50 (AGS): 1.6 µM | IC50 [1]: > 30 µM

O=C(COc1ccc(C23CC4CC(CC(C4)C2)C3)cc1)Nc1ccccc1C(=O)O
IC50 [1]: 10.5 µM

NC(=O)c1cccc(NC(=O)COc2ccccc2)c1
IC50 (AGS): > 30 µM | IC50 [1]: > 30 µM

NC(=O)c1cccc(NC(=O)COc2ccc(C34CC5CC(CC(C5)C3)C4)cc2)c1
Activity [2]: Dose-dependent effect | IC50 (AGS): 1 µM | IC50 [1]: 4.3 µM

CC(C)(C)c1ccc(OCC(=O)Nc2cccc(C(=O)O)c2)cc1
IC50 (AGS): 9.5 µM | IC50 [1]: 29 µM

CC(=O)c1ccc(OCC(=O)Nc2cccc(C(=O)O)c2)cc1
IC50 (AGS): > 30 µM | IC50 [1]: > 30 µM

O=C(COc1ccc(-c2cccc([N+](=O)[O-])c2)cc1)Nc1cccc(C(=O)O)c1
IC50 (AGS): > 30 µM | IC50 [1]: > 30 µM

O=C(COc1ccc(C23CC4CC(CC(C4)C2)C3)cc1)Nc1cc(C(=O)NCc2ccco2)ccc1O
IC50 (AGS): 5.9 µM | IC50 [1]: 12.6 µM
